pIC50: −log10 of the molar value.
Key:
[1] = tested on: platelets; assay: effect of antiplatelet compounds on DOX-induced platelet aggregation; format: cell-based; conditions: reagent at recommended concentration
[2] = tested on: HepG2 cells; assay: receptor mediated binding between CPP or FPH and HepG2 cells with inhibitors / blocking mabs; format: cell-based, human; conditions: inhibitor / blocking mab tested, Table 7
Procedure: Receptor mediated binding between CPP or FPH with HepG2 cells was investigated by inhibiting either a platelet receptor or a HepG2 receptor. Pooled apheresis platelets were incubated with 50 μM CFDA-Se for 60 minutes at room temperature then acidified to pH of 6.6-6.8 with citric acid. CPP and FPH were then created as disclosed in Example 1 but without doxorubicin. Untreated HepG2 cells served as negative control groups. HepG2 cells were seeded at a density of 10^5 cells in a 12-well plate (NuncTM Cell-Culture Treated Multidishes, catalog no: 150628) After incubation for 24 hours, the original medium was […] hours with fresh 0.5% FBS DMEM (ATCC-formulated Eagle's Minimum Essential Medium, catalog No. 30-2003). To determine the effect of platelet receptor inhibition on the binding between CPP/FPH and HepG2 cells first both CPP and FPH were incubated with tirofiban to block the GpIIb/IIIa receptor. Then the HepG2 cells were supplemented with tirofiban treated CPP, tirofiban treated FPH, untreated CPP, or untreated FPH at an equivalent platelet count of 0.3×10^6 platelets/μl. The cells were then washed with cold PBS three times, harvested by a scraper, and then suspended in PBS. The fluorescence intensity was determined by flow cytometry with the FITC channel. Approximately 10,0000 events for each sample was measured to assess the surface binding between the HepG2 cells and tirofiban treated CPP or FPH. To determine the effect of HepG2 receptor inhibition on the binding between CPP/FPH and HepG2 cells, first HepG2 cells were treated with either anti-podoplanin blocking monoclonal antibody or phagocytosis (wortmannin) inhibitor for 30 minutes. Then the HepG2 cells were incubated with either CPP or FPH. The HepG2 cells were washed with cold PBS three times, harvested by a scraper, and then suspended in PBS. The fluorescence intensity was determined by flow cytometry with the FITC channel. Approximately 10,0000 events for each sample was measured to assess the surface binding between the HepG2 cells CPP or FPH. […]

[3] = molecular target: GPIIb/IIIa (Homo sapiens, UniProt P05106+P08514); conditions: printed as recommended concentration; source PMID: 9700979; cited from earlier work
GPIIb/IIIa, sequence (P08514 32-887 limits assumed): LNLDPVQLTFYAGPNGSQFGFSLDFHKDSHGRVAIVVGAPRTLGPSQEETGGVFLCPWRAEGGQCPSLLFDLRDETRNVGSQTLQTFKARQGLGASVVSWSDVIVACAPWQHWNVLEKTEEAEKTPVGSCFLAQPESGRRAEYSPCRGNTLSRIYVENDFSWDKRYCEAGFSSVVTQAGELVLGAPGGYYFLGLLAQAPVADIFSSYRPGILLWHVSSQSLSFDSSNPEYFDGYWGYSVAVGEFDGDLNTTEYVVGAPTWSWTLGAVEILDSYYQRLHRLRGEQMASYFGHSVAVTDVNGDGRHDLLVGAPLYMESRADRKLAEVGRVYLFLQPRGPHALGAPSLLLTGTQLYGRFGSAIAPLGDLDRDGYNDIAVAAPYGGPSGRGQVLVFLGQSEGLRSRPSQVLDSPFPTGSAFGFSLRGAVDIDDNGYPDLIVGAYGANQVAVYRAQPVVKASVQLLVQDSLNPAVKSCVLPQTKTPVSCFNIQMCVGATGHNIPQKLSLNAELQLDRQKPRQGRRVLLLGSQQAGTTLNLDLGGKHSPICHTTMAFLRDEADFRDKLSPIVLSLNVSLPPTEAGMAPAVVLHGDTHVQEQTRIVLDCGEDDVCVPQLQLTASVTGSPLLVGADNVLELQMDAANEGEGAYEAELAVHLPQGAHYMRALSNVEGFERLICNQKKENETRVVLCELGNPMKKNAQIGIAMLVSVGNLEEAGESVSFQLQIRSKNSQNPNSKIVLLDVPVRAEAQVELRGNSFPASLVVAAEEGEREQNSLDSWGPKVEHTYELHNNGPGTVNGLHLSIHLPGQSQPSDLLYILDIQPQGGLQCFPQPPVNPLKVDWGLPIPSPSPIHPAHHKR
GPIIb/IIIa, sequence (P08514 891-1039 partner limits assumed): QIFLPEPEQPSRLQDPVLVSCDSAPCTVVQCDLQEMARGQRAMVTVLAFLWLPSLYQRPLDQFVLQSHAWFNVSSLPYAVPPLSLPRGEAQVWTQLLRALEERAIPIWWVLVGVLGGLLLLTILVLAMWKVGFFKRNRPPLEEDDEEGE
GPIIb/IIIa, sequence (P05106 27-788): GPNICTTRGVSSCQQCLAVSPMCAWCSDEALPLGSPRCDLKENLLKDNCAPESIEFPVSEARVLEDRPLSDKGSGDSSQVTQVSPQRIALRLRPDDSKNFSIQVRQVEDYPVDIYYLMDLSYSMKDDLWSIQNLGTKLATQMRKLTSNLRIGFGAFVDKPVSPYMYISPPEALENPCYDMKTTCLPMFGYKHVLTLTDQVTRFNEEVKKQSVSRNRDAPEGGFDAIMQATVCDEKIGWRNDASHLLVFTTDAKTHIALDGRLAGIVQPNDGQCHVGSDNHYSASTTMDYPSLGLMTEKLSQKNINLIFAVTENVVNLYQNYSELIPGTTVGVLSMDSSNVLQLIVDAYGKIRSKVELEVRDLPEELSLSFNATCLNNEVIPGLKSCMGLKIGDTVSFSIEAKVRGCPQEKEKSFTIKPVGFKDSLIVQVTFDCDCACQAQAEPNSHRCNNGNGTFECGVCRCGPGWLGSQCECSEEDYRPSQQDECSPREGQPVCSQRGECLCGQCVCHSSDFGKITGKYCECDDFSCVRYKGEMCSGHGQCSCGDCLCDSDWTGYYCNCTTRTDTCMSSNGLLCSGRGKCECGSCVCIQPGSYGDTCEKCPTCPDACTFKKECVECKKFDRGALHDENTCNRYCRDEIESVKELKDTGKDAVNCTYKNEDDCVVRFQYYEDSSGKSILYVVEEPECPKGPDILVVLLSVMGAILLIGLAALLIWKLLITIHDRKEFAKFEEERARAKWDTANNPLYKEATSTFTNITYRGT

## CC(=O)N[C@@H](CS)C(=O)O [N-Acetylcysteine]
[1]; 0.6 mM DOX
  Max Platelet Count (Normalized to Untreated): 73%

## CC(=O)Oc1ccccc1C(=O)O [Aspirin (ASA), Aspirin]
[1]; 0.5 mg/mL DOX
  Max Platelet Count (Normalized to Untreated): 52%
[1]; 1 mg/mL DOX
  Max Platelet Count (Normalized to Untreated): 15%

## Nc1c(S(=O)(=O)O)cc(Nc2ccc(Nc3ccccc3)c(S(=O)(=O)O)c2)c2c1C(=O)c1ccccc1C2=O [PSB 0739]
[1]; 0.5 mg/mL DOX
  Max Platelet Count (Normalized to Untreated): 26%
[1]; 1 mg/mL DOX
  Max Platelet Count (Normalized to Untreated): 18%

## CN(C)CCCN1c2ccccc2Sc2ccc(Cl)cc21 [Chlorpromazine]
[2]
  change of CPP/FPH binding to HepG2 cells in comparison to control: No Significance

## CSCCNc1nc(SCCC(F)(F)F)nc2c1ncn2[C@@H]1O[C@H](COP(=O)(O)OP(=O)(O)C(Cl)(Cl)P(=O)(O)O)[C@@H](O)[C@H]1O [Cangrelor]
[1]; 0.5 mg/mL DOX
  Max Platelet Count (Normalized to Untreated): 47%
[1]; 1 mg/mL DOX
  Max Platelet Count (Normalized to Untreated): 26%

## CCCCS(=O)(=O)N[C@@H](Cc1ccc(OCCCCC2CCNCC2)cc1)C(=O)O [Tirofiban]
[2]
  change of CPP/FPH binding to HepG2 cells in comparison to control: Significance
[1]; 0.6 mM DOX
  Max Platelet Count (Normalized to Untreated): 73%

## CSc1nc(N)c2ncn([C@@H]3O[C@H](COP(=O)(O)OP(=O)(O)O)[C@@H](O)[C@H]3O)c2n1 [MeSADP]
[1]; 0.5 mg/mL DOX
  Max Platelet Count (Normalized to Untreated): 33%
[1]; 1 mg/mL DOX
  Max Platelet Count (Normalized to Untreated): 10%

## CC1(C)CC(NC(=O)C[P+](c2ccccc2)(c2ccccc2)c2ccccc2)CC(C)(C)N1[O] [MitoTEMPO]
[1]; 1.2 mM DOX
  Max Platelet Count (Normalized to Untreated): 37%

## COC(=O)/C=C1/SC(=NC(=O)c2ccc(Cl)cc2Cl)N(c2ccc(Cl)cc2)C1=O [FR171113]
[1]; 0.5 mg/mL DOX
  Max Platelet Count (Normalized to Untreated): 51%
[1]; 1 mg/mL DOX
  Max Platelet Count (Normalized to Untreated): 16%

## O=c1c(-c2ccc(O)cc2)coc2cc(O)cc(O)c12 [Genistein]
[2]
  change of CPP/FPH binding to HepG2 cells in comparison to control: No Significance

## Cl.Cl.Cl.N=C(N)c1ccc(N2CCN(C3CCN(CC(=O)O)CC3)CC2)cc1 [GR144053]
[3]
  pIC50: 7.43
[1]; 0.5 mg/mL DOX
  Max Platelet Count (Normalized to Untreated): 83%
[1]; 1 mg/mL DOX
  Max Platelet Count (Normalized to Untreated): 42%

Reference: patent US20250000908A1, “METHODS FOR PREPARING AND ADMINISTERING CRYOPRESERVED PLATELETS AND PLATELET DERIVATIVES LOADED WITH ANTI-CANCER DRUGS” (Cellphire, Inc., priority 2023, published 2025)
